Experimental data reported in PubChem BioAssay AID330 (DTP/NCI, 2004).
“And” between values parts separate entries of the source, which are not always exact repeats. Identical values can stand only once. Toxic doses and inconclusive results are not listed. The calls were made as follows: active = survival T/C of 150% or more; inactive = T/C below 125% in these data.

Test system: P388 leukemia ip, CD2F1 mice, survival T/C
Assay: NCI In Vivo Anticancer Drug Screen. Data for tumor model P388 Leukemia (intraperitoneal) in CD2F1 (CDF1) mice
Settings: endpoint: median survival time, higher = longer survival
How it was run: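 Mice carrying the transplanted tumor received test compound or vehicle. Survival was recorded in each group, and the value is the treated-group measurement divided by that of the vehicle-treated control group.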

[1] = dose: 50.0 mg/kg/injection, schedule: Q01DX005 (ip), vehicle: saline with Tween-80
[2] = dose: 100.0 mg/kg/injection, schedule: Q01DX005 (ip), vehicle: saline with Tween-80
[3] = dose: 200.0 mg/kg/injection, schedule: Q01DX005 (ip), vehicle: saline with Tween-80
[4] = dose: 400.0 mg/kg/injection, schedule: Q04DX003 (ip), vehicle: saline with Tween-80
[5] = dose: 50.0 mg/kg/injection, schedule: Q01DX005 (ip), vehicle: Klucel (hydroxypropylcellulose) (HPC)
[6] = dose: 60.0 mg/kg/injection, schedule: Q01DX005 (ip), vehicle: Klucel (hydroxypropylcellulose) (HPC)
[7] = dose: 50.0 mg/kg/injection, schedule: Q01DX009 (ip), vehicle: saline
[8] = dose: 100.0 mg/kg/injection, schedule: Q01DX009 (ip), vehicle: saline
[9] = dose: 200.0 mg/kg/injection, schedule: Q01DX009 (ip), vehicle: saline

Measured: T/C

CC(O)C(=O)O (stereo not given)
inactive: dose: 0.06 % in 0.5 ml injection vol, schedule: Q01DX009 (ip), vehicle: water 98 % of control and 100 % of control | dose: 0.12 % in 0.5 ml injection vol, schedule: Q01DX009 (ip), vehicle: water 107 % of control and 95 % of control | dose: 0.25 % in 0.5 ml injection vol, schedule: Q01DX009 (ip), vehicle: water 93 % of control | dose: 0.5 % in 0.5 ml injection vol, schedule: Q01DX009 (ip), vehicle: water 99 % of control and 100 % of control | dose: 4.0 % in 0.5 ml injection vol, schedule: Q01DX009 (ip), vehicle: water 100 % of control | dose: 8.0 % in 0.5 ml injection vol, schedule: Q01DX009 (ip), vehicle: water 99 % of control and 100 % of control

Cc1cc(NS(=O)(=O)c2ccc(N=c3c4ccccc4n(C)c4ccccc34)cc2)no1
inactive: [1] 103 % of control | [2] 102 % of control | [3] 103 % of control

C=CCCn1nnc(-c2ccccc2)n1
inactive: dose: 25.0 mg/kg/injection, schedule: Q04DX003 (ip), vehicle: saline with Tween-80 102 % of control | dose: 50.0 mg/kg/injection, schedule: Q04DX003 (ip), vehicle: saline with Tween-80 96 % of control | dose: 100.0 mg/kg/injection, schedule: Q04DX003 (ip), vehicle: saline with Tween-80 100 % of control | dose: 200.0 mg/kg/injection, schedule: Q04DX003 (ip), vehicle: saline with Tween-80 104 % of control and 105 % of control | [4] 94 % of control

Cc1c(CCNC=O)ccc2c1[nH]c1ccccc12
inactive: [5] 95 % of control | dose: 100.0 mg/kg/injection, schedule: Q01DX005 (ip), vehicle: Klucel (hydroxypropylcellulose) (HPC) 96 % of control | dose: 200.0 mg/kg/injection, schedule: Q01DX005 (ip), vehicle: Klucel (hydroxypropylcellulose) (HPC) 100 % of control

CO/C=C(/C#N)S(=O)(=O)/C(C#N)=C/OC
inactive: [1] 100 % of control | [2] 112 % of control | [3] 104 % of control

CC1(C)C=C(O)C(=O)C(O)=C1
inactive: dose: 15.0 mg/kg/injection, schedule: Q01DX005 (ip), vehicle: Klucel (hydroxypropylcellulose) (HPC) 102 % of control | dose: 30.0 mg/kg/injection, schedule: Q01DX005 (ip), vehicle: Klucel (hydroxypropylcellulose) (HPC) 102 % of control | [5] 116 % of control | [6] 103 % of control

C=CCCNC(=S)S
inactive: dose: 60.0 mg/kg/injection, schedule: Q01DX005 (ip), vehicle: saline 109 % of control | dose: 120.0 mg/kg/injection, schedule: Q01DX005 (ip), vehicle: saline 107 % of control | dose: 240.0 mg/kg/injection, schedule: Q01DX005 (ip), vehicle: saline 108 % of control

COc1ccc(C(c2cc3c(cc2O)OCO3)N2CCCC2)cc1 (stereo not given)
inactive: [6] 100 % of control | dose: 120.0 mg/kg/injection, schedule: Q01DX005 (ip), vehicle: Klucel (hydroxypropylcellulose) (HPC) 100 % of control

CSC(=S)c1ccccc1NS(=O)(=O)c1ccccc1
inactive: dose: 100.0 mg/kg/injection, schedule: Q04DX003 (ip), vehicle: saline 113 % of control | dose: 200.0 mg/kg/injection, schedule: Q04DX003 (ip), vehicle: saline 103 % of control | dose: 400.0 mg/kg/injection, schedule: Q04DX003 (ip), vehicle: saline 108 % of control

COC(=O)/C=C/c1cc[n+]([O-])cc1
inactive: dose: 50.0 mg/kg/injection, schedule: Q01DX005 (ip), vehicle: saline 93 % of control | dose: 100.0 mg/kg/injection, schedule: Q01DX005 (ip), vehicle: saline 101 % of control | dose: 200.0 mg/kg/injection, schedule: Q01DX005 (ip), vehicle: saline 101 % of control

C/C=C/C[P+](Cc1cccc(C)c1)(c1ccccc1)c1ccccc1
inactive: dose: 0.78 mg/kg/injection, schedule: Q01DX009 (ip), vehicle: saline 101 % of control | dose: 1.56 mg/kg/injection, schedule: Q01DX009 (ip), vehicle: saline 95 % of control | dose: 3.13 mg/kg/injection, schedule: Q01DX009 (ip), vehicle: saline 111 % of control

FC(F)(F)C(F)(F)C(F)(F)c1nnc(-c2ccc(Cl)cc2Cl)o1
inactive: dose: 100.0 mg/kg/injection, schedule: Q01DX001 (ip), vehicle: saline with Tween-80 95 % of control | dose: 200.0 mg/kg/injection, schedule: Q01DX001 (ip), vehicle: saline with Tween-80 100 % of control | dose: 400.0 mg/kg/injection, schedule: Q01DX001 (ip), vehicle: saline with Tween-80 96 % of control

CCc1cccc(CC)c1N1C(=O)CSCC1=O
inactive: [7] 99 % of control | [8] 93 % of control | [9] 100 % of control

Cc1ccc2nc(NC(=O)N(CCCl)N=O)sc2c1
active: [4] 168 % of control

COc1ccc(CSC(=S)Nc2ccc(C)c(Br)c2)cc1
inactive: [7] 100 % of control | [8] 97 % of control | dose: 100.0 mg/kg/injection, schedule: Q01DX009 (ip), vehicle: suspension in saline 91 % of control | [9] 106 % of control | dose: 200.0 mg/kg/injection, schedule: Q01DX009 (ip), vehicle: suspension in saline 104 % of control
